Experimental data reported in US9233979B2, “Compounds that are ERK inhibitors” (Merck Sharp & Dohme Corp., priority 2012, dated 2016).

Target: phosphorylated active hERK2 enzyme (Homo sapiens (Human), UniProt P28482)
Assay: Active Human ERK2 (hERK2) Activity Assay (IMAP-FP)
Type: biochemical
Details: Table 6, 0.5 nM hERK2, 30 μM ATP, 10 point titration, read-out: AERK2 IC50
Method in brief: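 IMAP detection beads in buffer with 24 mM NaCl stopped the reaction, and fluorescence polarization was read after 60 min binding.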

Sequence of phosphorylated active hERK2 enzyme (P28482 whole entry): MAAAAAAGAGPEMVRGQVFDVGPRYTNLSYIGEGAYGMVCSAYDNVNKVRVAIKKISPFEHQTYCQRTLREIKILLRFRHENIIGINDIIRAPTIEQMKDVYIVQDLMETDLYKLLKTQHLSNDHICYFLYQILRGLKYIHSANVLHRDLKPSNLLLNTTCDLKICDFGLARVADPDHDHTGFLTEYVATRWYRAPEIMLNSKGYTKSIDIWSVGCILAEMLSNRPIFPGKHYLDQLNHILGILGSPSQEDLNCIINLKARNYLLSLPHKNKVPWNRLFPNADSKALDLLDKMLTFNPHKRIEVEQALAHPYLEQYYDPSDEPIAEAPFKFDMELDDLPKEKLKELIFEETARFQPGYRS

IC50 [µM]	Compound
0.012	CCNc1n[nH]c2cc(NC(=O)N[C@H](C)c3ccc(Cl)cc3)ncc12 [Example 249, 1-[(1R)-1-(4-chlorophenyl)ethyl]-3-[3-(ethylamino)-1H-pyrazolo[4,3-c]pyridin-6-yl]urea]
0.032	CCNc1n[nH]c2cc(NC(=O)NCc3cccnc3N(C)C)ncc12 [Example 250, 1-{[2-(dimethyl-amino)pyridin-3-yl]methyl}-3-[3-(ethylamino)-1H-pyrazolo[4,3-c]-pyridin-6-yl]urea]
0.0032	CCNc1n[nH]c2cc(NC(=O)NC(C)c3ccc(F)c(F)c3)ncc12 (centres unmarked) [Example 251, 1-[1-(3,4-difluoro-phenyl)ethyl]-3-[3-(ethylamino)-1H-pyrazolo[4,3-c]-pyridin-6-yl]urea]
0.002	CCNc1n[nH]c2cc(NC(=O)N[C@H](C)c3ccc(Cl)c(C)c3)ncc12 [Example 252, 1-[(1R)-1-(4-chloro-3-methyl-phenyl)ethyl]-3-[3-(ethylamino)-1H-pyrazolo[4,3-c]-pyridin-6-yl]urea]
0.001	CCNc1n[nH]c2cc(NC(=O)N[C@@H]3CN(C)C[C@H]3c3ccccc3)ncc12 [Example 253, 1-[3-(ethylamino)-1H-pyrazolo[4,3-c]pyridin-6-yl]-3-[(3S,4R)-1-methyl-4-phenylpyrrolidin-3-yl]urea]
0.0577	CC(CNC(=O)Nc1cc2[nH]nc(N)c2cn1)c1ccccc1 (centres unmarked) [Example 254, 1-(3-amino-1H-pyrazolo[4,3-c]pyridin-6-yl)-3-(2-phenyl-propyl)urea]
0.0181	C[C@@H](NC(=O)Nc1cc2[nH]nc(N)c2cn1)C1CCCCC1 [Example 255, 1-(3-amino-1H-pyrazolo[4,3-c]pyridin-6-yl)-3-[(1R)-1-cyclohexyl-ethyl]urea]
0.0375	Nc1n[nH]c2cc(NC(=O)NC3CNc4ccccc4C3)ncc12 (centres unmarked) [Example 256, 1-(3-amino-1H-pyrazolo[4,3-c]pyridin-6-yl)-3-(1,2,3,4-tetrahydro-quinolin-3-yl)urea]
0.0371	Nc1n[nH]c2cc(NC(=O)NC3COc4ccccc4C3)ncc12 (centres unmarked) [Example 257, 1-(3-amino-1H-pyrazolo[4,3-c]pyridin-6-yl)-3-(3,4-dihydro-2H-chromen-3-yl)urea]
0.103	Nc1n[nH]c2cc(NC(=O)N[C@@H]3CCOc4ccccc43)ncc12 [Example 258, 1-(3-amino-1H-pyrazolo[4,3-c]pyridin-6-yl)-3-[(4R)-3,4-dihydro-2H-chromen-4-yl]-urea]
0.325	Nc1n[nH]c2cc(NC(=O)NC3COc4ccccc43)ncc12 (centres unmarked) [Example 259, 1-(3-amino-1H-pyrazolo[4,3-c]pyridin-6-yl)-3-(2,3-dihydro-1-benzofuran-3-yl)-urea]
0.0004	Nc1n[nH]c2cc(NC(=O)N[C@@H](c3ccccc3)C3(O)CCCC3)ncc12 [Example 260, 1-(3-amino-1H-pyrazolo[4,3-c]-pyridin-6-yl)-3-[(S)-(1-hydroxy-cyclopentyl)-(phenyl)methyl]-urea]
0.006	Nc1n[nH]c2cc(NC(=O)NC3CCCC3c3ccccc3)ncc12 (centres unmarked) [Example 261, 1-(3-amino-1H-pyrazolo[4,3-c]-pyridin-6-yl)-3-(2-phenylcyclopentyl)urea]
0.0207	CCOc1ncccc1CNC(=O)Nc1cc2[nH]nc(N)c2cn1 [Example 262, 1-(3-amino-1H-pyrazolo[4,3-c]pyridin-6-yl)-3-[(2-ethoxypyridin-3-yl)methyl]urea]
0.127	CN(C)C[C@H](NC(=O)Nc1cc2[nH]nc(N)c2cn1)c1ccccc1 [Example 263, 1-(3-amino-1H-pyrazolo[4,3-c]-pyridin-6-yl)-3-[(1R)-2-(dimethylamino)-1-phenylethyl]urea]
0.94	Nc1n[nH]c2cc(NC(=O)NCc3ccc(F)c(Cl)c3)ncc12 [Example 264, 1-(3-amino-1H-pyrazolo[4,3-c]-pyridin-6-yl)-3-(3-chloro-4-fluorobenzyl)urea]
0.0245	Nc1n[nH]c2cc(NC(=O)NCc3cccc(F)c3)ncc12 [Example 265, 1-(3-amino-1H-pyrazolo[4,3-c]-pyridin-6-yl)-3-(3-fluorobenzyl)urea]
0.0138	Cc1cccc(Cl)c1CNC(=O)Nc1cc2[nH]nc(N)c2cn1 [Example 266, 1-(3-amino-1H-pyrazolo[4,3-c]pyridin-6-yl)-3-(2-chloro-6-methylbenzyl)urea]
0.0053	Nc1n[nH]c2cc(NC(=O)NCc3ccccc3OC(F)F)ncc12 [Example 267, 1-(3-amino-1H-pyrazolo[4,3-c]pyridin-6-yl)-3-[2-(difluoro-methoxy)benzyl]-urea]
0.0107	COc1ccccc1CNC(=O)Nc1cc2[nH]nc(N)c2cn1 [Example 268, 1-(3-amino-1H-pyrazolo[4,3-c]pyridin-6-yl)-3-(2-methoxy-benzyl)urea]
0.0033	COc1cccc(F)c1CNC(=O)Nc1cc2[nH]nc(N)c2cn1 [Example 269, 1-(3-amino-1H-pyrazolo[4,3-c]pyridin-6-yl)-3-(2-fluoro-6-methoxy-benzyl)urea]

IC50 [µM]	Compound
0.0032	C[C@@H](NC(=O)Nc1cc2[nH]nc(N)c2cn1)c1cccc(F)c1 [Example 270, 1-(3-amino-1H-pyrazolo[4,3-c]pyridin-6-yl)-3-[(1R)-1-(3-fluorophenyl)ethyl]urea]
0.0173	C[C@@H](NC(=O)Nc1cc2[nH]nc(N)c2cn1)c1ccc(F)c(Cl)c1 [Example 271, 1-(3-amino-1H-pyrazolo[4,3-c]pyridin-6-yl)-3-[(1R)-1-(3-chloro-4-fluorophenyl)-ethyl]urea]
0.0056	C[C@@H](NC(=O)Nc1cc2[nH]nc(N)c2cn1)c1cccc(Cl)c1 [Example 272, 1-(3-amino-1H-pyrazolo[4,3-c]pyridin-6-yl)-3-[(1R)-1-(3-chloro-phenyl)ethyl]urea]
0.0026	CC[C@@H](NC(=O)Nc1cc2[nH]nc(N)c2cn1)c1ccc(Cl)cc1 [Example 273, 1-(3-amino-1H-pyrazolo[4,3-c]pyridin-6-yl)-3-[(1R)-1-(4-chloro-phenyl)propyl]urea]
0.0324	CN(C)c1ncccc1CNC(=O)Nc1cc2[nH]nc(N)c2cn1 [Example 274, 1-(3-amino-1H-pyrazolo[4,3-c]-pyridin-6-yl)-3-{[2-(dimethylamino)-pyridin-3-yl]-methyl}urea]
0.0046	CC(NC(=O)Nc1cc2[nH]nc(N)c2cn1)c1ccc(F)c(F)c1 (centres unmarked) [Example 275, 1-(3-amino-1H-pyrazolo[4,3-c]-pyridin-6-yl)-3-[1-(3,4-difluorophenyl)-ethyl]urea]
0.0023	Cc1cc([C@@H](C)NC(=O)Nc2cc3[nH]nc(N)c3cn2)ccc1Cl [Example 276, 1-(3-amino-1H-pyrazolo[4,3-c]pyridin-6-yl)-3-[(1R)-1-(4-chloro-3-methylphenyl)-ethyl]urea]
0.0032	CN1C[C@@H](NC(=O)Nc2cc3[nH]nc(N)c3cn2)[C@H](c2ccccc2)C1 [Example 277, 1-(3-amino-1H-pyrazolo[4,3-c]pyridin-6-yl)-3-[(3S,4R)-1-methyl-4-phenylpyrrolidin-3-yl]urea]
0.0218	CCNc1n[nH]c2cc(NC(=O)NCc3ncccc3Cl)ncc12 [Example 278, 1-[(3-chloro-pyridin-2-yl)-methyl]-3-[3-(ethylamino)-1H-pyrazolo[4,3-c]-pyridin-6-yl]urea]
0.0634	CCNc1n[nH]c2cc(NC(=O)NCc3ncccc3F)ncc12 [Example 279, 1-[3-(ethylamino)-1H-pyrazolo[4,3-c]pyridin-6-yl]-3-[(3-fluoropyridin-2-yl)methyl]urea]
0.143	CCNc1n[nH]c2cc(NC(=O)NC(C)c3ccc(C)nc3)ncc12 (centres unmarked) [Example 280, 1-[3-(ethylamino)-1H-pyrazolo[4,3-c]pyridin-6-yl]-3-[1-(6-methyl-pyridin-3-yl)-ethyl]urea]
0.0983	CCNc1n[nH]c2cc(NC(=O)NC(C)c3cc(C)ccn3)ncc12 (centres unmarked) [Example 281, 1-[3-(ethylamino)-1H-pyrazolo[4,3-c]pyridin-6-yl]-3-[1-(4-methyl-pyridin-2-yl)-ethyl]urea]
0.0342	CCNc1n[nH]c2cc(NC(=O)NC(C)c3ccc(F)nc3)ncc12 (centres unmarked) [Example 282, 1-[3-(ethylamino)-1H-pyrazolo[4,3-c]pyridin-6-yl]-3-[1-(6-fluoropyridin-3-yl)ethyl]urea]
0.0444	CCNc1n[nH]c2cc(NC(=O)NC(C)c3cccnc3)ncc12 (centres unmarked) [Example 283, 1-[3-(ethylamino)-1H-pyrazolo[4,3-c]pyridin-6-yl]-3-(1-pyridin-3-ylethyl)urea]
0.033	CCNc1n[nH]c2cc(NC(=O)NC(C)c3ccc(F)cn3)ncc12 (centres unmarked) [Example 284]
0.0052	COC(=O)Nc1n[nH]c2cc(NC(=O)N[C@H](C)c3ccc(Cl)cc3)ncc12 [Example 286, methyl [6-({[(1R)-1-(4-chlorophenyl)-ethyl]carbamoyl}-amino)-1H-pyrazolo[4,3-c]pyridin-3-yl]carbamate]
0.001	COC(=O)Nc1n[nH]c2cc(NC(=O)N[C@H](C)c3cccc(Cl)c3)ncc12 [Example 287, methyl [6-({[(1R)-1-(3-chlorophenyl)-ethyl]carbamoyl}-amino)-1H-pyrazolo[4,3-c]-pyridin-3-yl}-carbamate]
0.0006	COC(=O)Nc1n[nH]c2cc(NC(=O)N[C@H](COC(F)F)c3ccccc3)ncc12 [Example 288, methyl [6-({[(1S)-2-(difluoro-methoxy)-1-phenylethyl]-carbamoyl}amino)-1H-pyrazolo[4,3-c]pyridin-3-yl}-carbamate]
0.0009	COC(=O)Nc1n[nH]c2cc(NC(=O)N[C@@H](c3ccccc3)C3(O)CCCC3)ncc12 [Example 289, methyl [6-({[(S)-(1-hydroxycyclo-pentyl)(phenyl)-methyl]carbamoyl}amino)-1H-pyrazolo[4,3-c]-pyridin-3-yl]-carbamate]
0.0006	COC(=O)Nc1n[nH]c2cc(NC(=O)N[C@@H](c3ccccc3)[C@H]3CCCO3)ncc12 [Example 290, methyl {6-[({(S)-phenyl[(2R)-tetra-hydrofuran-2-yl]-methyl}carbamoyl)amino]-1H-pyrazolo[4,3-c]-pyridin-3-yl}-carbamate]
